Tested on: skin equivalent marketed by EPISKIN (reconstructed epidermis)
Experiment: Synthesis of epidermal ceramides in reconstructed epidermis (14C acetate labelling, HPTLC, densitometry)
Format: cell-based
Conditions: each compound alone at 15 μg/ml, relative to the untreated control; for % increase in ceramides in the epidermis equivalent: 24 hours of treatment; for % increase in the ceramides in the epidermis equivalent: 48 hours of treatment
Description: Ascorbic acid and derivatives thereof were tested on a skin equivalent marketed by EPISKIN (LYON, France), after culturing the latter for 7 days. The culture and test media were those included in the kit marketed by the supplier. Each compound was tested individually at 15 μg/ml and in combination with 5 μg/ml (as vitamin C equivalent), in the culture medium. The reconstructed epidermes were treated for 24 hours. The control consisted of an identical epidermis equivalent which was subjected to topical application of culture medium without the test compound.
The reconstructed epidermis was incubated overnight with ^14C acetate (2 μCi/ml) before topical application of vitamin C and derivatives thereof, to monitor the synthesis of the lipids.
At the end of the incubation period, the epidermis equivalent was detached from its collagenic support. The preparation of the lipids of the epidermis equivalent and their analysis by HPTLC or high-performance thin-layer chromatography, were carried out according to the technique and with the buffers described by M. Ponec (1991, Adv. Lipid Res., 24:83-117).
At the end of the migration, densitometric analysis of the autoradiograph was carried out using a densitometer of the FUJI brand, model 1800.
The procedure described in Example 1 was repeated, except that the test was performed over 48 hours instead of 24 hours. In addition, only vitamin C and vitamin CP were tested, the mixture of the two being formulated using 7.5 μg/ml of each vitamin.

| Structure (SMILES) | % increase in ceramides in the epidermis equivalent [%] | % increase in the ceramides in the epidermis equivalent [%] |
| --- | --- | --- |
| O=C1O[C@H]([C@@H](O)CO)C(O)=C1O [Vitamin C, ascorbic acid] | 54 | 126 |
| O=C1O[C@H]([C@@H](O)CO)C(O)=C1O[C@H]1O[C@H](CO)[C@@H](O)[C@H](O)[C@H]1O [Vitamin CG, ascorbyl 2-glucoside] | 69 |  |
| O=C1O[C@H]([C@@H](O)CO)C([O-])=C1OP(=O)([O-])[O-].O=C1O[C@H]([C@@H](O)CO)C([O-])=C1OP(=O)([O-])[O-].[Mg+2].[Mg+2].[Mg+2] [Vitamin CP, Magnesium ascorbyl phosphate] | 99 | 148 |
